{
  "source": "patent US8916607B2",
  "about": "“Use of piperphentonamine or salts thereof in manufacture of medicaments for treating brain diseases” (Guangzhou Municipal Zhongwei Biotechnology Limited Company, priority 2009, dated 2014)",
  "key": {"[1]": {"tested_on": "learning and memory dysfunction caused by cerebral ischemia reperfusion", "experiment": "platform-diving experiment in dementia model of mice caused by ischemia reperfusion", "assay_type": "in vivo, Kunming mice", "conditions": "for memory achievement Error times / Learning achievement Error times: in 5 min; for memory achievement Error times: test-retest period; for Learning achievement Error times: training period", "experimental": "The animals were randomly divided into five groups: sham operation group, model group, piperphentonamine hydrochloride 1 mg/kg group, 2 mg/kg group, 4 mg/kg group. There were 10 mice in each group.\nAfter the mice were fasted for 16 hours, we established the dementia model of mice caused by ischemia reperfusion. The preparatory steps were proceeded as follows: anesthetizing mouse by sodium pentobarbital (60 mg/kg, ip), supinely immobilizing on a board, incising on the midmost of neck, isolating bilateral common carotid artery, and threading with zero-size silk thread. Afterwards, operation steps were proceeded as follows: blocking the blood flow of bilateral common carotid artery for 10 min, then resuming the blood flow for 10 min, repeating the blocking/resuming steps for 3 times, and suturing the skin. The mice were put in normal feeding conditions. Bilateral common carotid artery is only isolated for sham operation group.\nAfter ischemia reperfusion for 10 min, the drugs are injected on tail vein, after ischemia reperfusion for 24 h, administering for the second time. Carrying on the platform-diving experiment after administering for half an hour. The mice under test are put into the platform-diving instrument, adapting the environment for 3 min, and then the bottom plate being electrified, observing the time when the mouse jump onto the high platform (reaction time) and the times which the mouse jump down from the high platform and are shocked by electricity in 5 min (the number of errors in the training period). After 24 h, administering again, then carry on the second platform-diving experiment to measure the function of obtaining memory. Putting the mouse on the platform of experimental instrument, electrifying the bottom plate at the same time, recording the time when the mouse jump down from the high platform (latency) and the times which shock by electricity in 5 min (the times of error in test-retest period)."}, "[2]": {"tested_on": "cerebral edema of mice caused by closed cerebral trauma", "experiment": "closed cerebral trauma model of mice, brain water content", "assay_type": "in vivo, Kunming mice", "conditions": "brain taken after 24 h", "experimental": "There were 10 mice in each group.\nThe closed cerebral trauma model of mice being established after fasting for 16 hours, administering intravenously to each group, striping and taking the brain of mouse after 24 hours, weighing the wet weight, and drying at 70° C. for 24 hours, then weighing the dry weight, and calculating brainwater content; the brain water content which is higher than normal values indicates the cerebral edema.\nThe grouping method, administer method and model preparation were referred to example 2."}, "[3]": {"tested_on": "cerebral hemorrhage in rats induced by collagenase", "experiment": "ICH model induced by collagenase: histopathological observation", "assay_type": "in vivo, Wistar rats", "conditions": "large dose (2 mg/kg) pretreatment", "experimental": "Influence of piperphentonamine hydrochloride on pathological morphology of cerebral hemorrhage in rats was observed. Each group animals were selected randomly, anesthetized deeply by chloral hydrate at predetermined time point, decollated and the brain were taken out rapidly, then, the brain tissue slices with hematoma (about 5 mm) were cut, and put into 10% formaldehyde solution immediately, fixed for 24 h followed by dehydration by graded ethanol, transparentizing by xylene, immersing in paraffin, embedding, slicing (5 μm), HE staining and sealing. The pathological changes area and the pathological change of the adjacent brain tissue were observed by optical microscope."}, "[4]": {"tested_on": "cerebral hemorrhage in rats induced by collagenase", "experiment": "cerebral hemorrhage (ICH) model induced by collagenase: neurology score", "assay_type": "in vivo, Wistar rats", "experimental": "Animals are randomly divided into five groups: sham operation 24 h group; cerebral hemorrhage (Intracerebral Haemorrhage, ICH)+physiological saline group (model); ICH+piperphentonamine hydrochloride (JBTA, 2 mg/kg) group, called as high dose group (h); ICH+piperphentonamine hydrochloride (JBTA, 0.5 mg/kg) group, called as low dose group (1); ICH+nimodipine (Nim, 0.5 mg/kg) group. The last four groups are divided into 4 h, 8 h, 12 h, 24 h as four time subgroups respectively. Physiological saline solution, piperphentonamine hydrochloride and nimodipine are intravenously injected from rat tail before the ICH model is established for 30 minutes, once a day. Injecting slowly, the total amount of drug liquid is controlled in 1 ml/200 g body weight: physiological saline solution also being administered in 1 ml/200 g body weight. Each group has 7 Wistar rats.\nThe specific steps are as following: after the experimental rats are anesthetized by injecting chloral hydrate (350 mg/kg) in intraperitoneal, and being supinely immobilized in a stereotaxic instrument, and make the rat anterior fontanelle and posterior fontanelle in the same plane according to localization method reported by BAO Xinmin, etc. Being locally disinfected by iodine, incising in the midmost of scalp, scissoring the periosteum, exposing the anterior fontanelle, drilling a 1 mm diameter hole with thickness close to duramater in 3 mm left to the midline by number five needle. Inserting needle along the hole by the micro syringe fixed on a stereotaxic, the depth of needle insertion is 5.8 mm (i.e., the caudate nucleus position), slowly injecting collagenase VI 0.5 U. Injection time is 3 min, keeping for 5 min after injection, then pull the needle out, suturing the skin, and putting the rat into cage and feed. Inserting the needle and not injecting drugs in sham operation group, the remaining operations is the same as the above.\nAfter animals wake up, scoring nerve function defect of each group immediately according to the grading classification standards of nerve defect reported by Bedersog (litter improved).\nChoosing the animals with the score of 3 and more into the experiment, the animals are bred in different cages, eat and drink normally. Temperature is controlled in 20 to 25° C., score in 4 h, 8 h, 12 h, 24 h after establishment of the model.\nDivide the animals randomly into five groups: sham operation (sham) 24 h group; ICH+normal saline group (model); ICH+piperphentonamine maleate (4 mg/kg) group, namely high dose group (h); ICH+piperphentonamine maleate (2 mg/kg) group, namely low dose group (1); ICH+nimodipine (0.5 mg/kg) group. The last four groups were divided into four time subgroup of 4 h, 8 h, 12 h and 24 h. Physiological solution, piperphentonamine maleate and nimodipine were injected intravenous from rat tail vein 30 minutes before the ICH model made, once a day. Inject slowly, the total amount of drug liquid was controlled in 1 ml/200 g body weight: normal saline was also administered in 1 ml/200 g body weight. Each group has seven Wistar rats."}, "human brain disease": {"tested_on": "human brain disease", "experiment": "research in treating human brain diseases (no details)", "assay_type": "in vivo"}, "[5]": {"tested_on": "infective brain edema of rats (pertussis bacteria liquid)", "experiment": "infective cerebral edema by pertussis bacteria liquid: brain water, sodium and potassium ion content", "assay_type": "in vivo, SD rats", "parameters": "Na^+ / K^+: unit not given here", "conditions": "pretreatment 0.5 mg/kg iv daily, two days; 4 h after bacteria liquid"}},
  "note": "Marks after values point to notes of the source that are not given here.",
  "data": [
    {"molecule": "CN(CCC(=O)/C=C/c1ccc(O)cc1)CCc1ccc2c(c1)OCO2.Cl", "note": "[piperphentonamine hydrochloride, Piperphentonamine hydrochloride]", "values": [
      {"measurement": "Learning achievement Reaction time s", "setting": "[1]; 1 mg/kg tail vein", "value": "16.53 ± 11.75", "unit": "s"},
      {"measurement": "memory achievement latency s", "setting": "[1]; 1 mg/kg tail vein", "value": "249.84 ± 133.55", "unit": "s"},
      {"measurement": "memory achievement Error times", "setting": "[1]; 1 mg/kg tail vein", "value": "1.31 ± 0.58"},
      {"measurement": "Learning achievement Error times", "setting": "[1]; 1 mg/kg tail vein", "value": "5.37 ± 3.63"},
      {"measurement": "Learning achievement Reaction time s", "setting": "[1]; 2 mg/kg tail vein", "value": "13.34 ± 8.85", "unit": "s"},
      {"measurement": "memory achievement latency s", "setting": "[1]; 2 mg/kg tail vein", "value": "308.13 ± 97.73", "unit": "s"},
      {"measurement": "memory achievement Error times", "setting": "[1]; 2 mg/kg tail vein", "value": "0.73 ± 0.58"},
      {"measurement": "Learning achievement Error times", "setting": "[1]; 2 mg/kg tail vein", "value": "5.08 ± 3.34"},
      {"measurement": "Learning achievement Reaction time s", "setting": "[1]; 4 mg/kg tail vein", "value": "7.11 ± 4.06", "unit": "s"},
      {"measurement": "memory achievement latency s", "setting": "[1]; 4 mg/kg tail vein", "value": "352.79 ± 141.5", "unit": "s"},
      {"measurement": "memory achievement Error times", "setting": "[1]; 4 mg/kg tail vein", "value": "0.58 ± 1.45"},
      {"measurement": "Learning achievement Error times", "setting": "[1]; 4 mg/kg tail vein", "value": "4.5 ± 3.05"},
      {"measurement": "water content of cerebra (%)", "setting": "[2]; 1 mg/kg iv", "value": "82.05 ± 7.57", "unit": "%"},
      {"measurement": "water content of cerebra (%)", "setting": "[2]; 2 mg/kg iv", "value": "78.67 ± 5.38", "unit": "%"},
      {"measurement": "water content of cerebra (%)", "setting": "[2]; 4 mg/kg iv", "value": "75.43 ± 8.38", "unit": "%"},
      {"measurement": "pathological morphology of cerebral hemorrhage", "setting": "[3]", "value": "tissue edema and inflammatory cell infiltration after cerebral hemorrhage were reduce obviously"},
      {"measurement": "neurological score", "setting": "[4]; 0.5 mg/kg iv 30 min before ICH, 4 h", "value": "4.5 ± 0.87"},
      {"measurement": "neurological score", "setting": "[4]; 0.5 mg/kg iv 30 min before ICH, 8 h", "value": "4.29 ± 1.02"},
      {"measurement": "neurological score", "setting": "[4]; 0.5 mg/kg iv 30 min before ICH, 12 h", "value": "3.65 ± 1.19"},
      {"measurement": "neurological score", "setting": "[4]; 0.5 mg/kg iv 30 min before ICH, 24 h", "value": "3.21 ± 1.61"},
      {"measurement": "neurological score", "setting": "[4]; 2 mg/kg iv 30 min before ICH, 4 h", "value": "4.07 ± 0.74"},
      {"measurement": "neurological score", "setting": "[4]; 2 mg/kg iv 30 min before ICH, 8 h", "value": "3.86 ± 1.19"},
      {"measurement": "neurological score", "setting": "[4]; 2 mg/kg iv 30 min before ICH, 12 h", "value": "2.36 ± 0.8*^Δ"},
      {"measurement": "neurological score", "setting": "[4]; 2 mg/kg iv 30 min before ICH, 24 h", "value": "1.71 ± 0.57**^Δ"},
      {"measurement": "treating human brain and other diseases", "setting": "human brain disease", "value": "obvious effect and clinical significance"},
      {"measurement": "K^+", "setting": "[5]", "value": "436.3 ± 43.9"},
      {"measurement": "Na^+", "setting": "[5]", "value": "181.1 ± 26.1"},
      {"measurement": "water content of brain (%)", "setting": "[5]", "value": "69.8 ± 0.44^3) %"}
    ]}
  ]
}
